Assay results taken from publication PMC11593814, “Novel Basidiomycetous Alcohol Oxidase from Cerrena unicolor—Characterisation, Kinetics, and Proteolytic Modifications” (International Journal of Molecular Sciences, 2024).

system: T1, alcohol oxidase (AOX) from Cerrena unicolor FCL139; assay: acetylacetone assay ([…],5-diacetyl-1,4-dihydrolutidine), Michaelis-Menten non-linear fit; format: biochemical; details: semi-purified native enzyme; substrate 1-100 mM; pH and temperature of the kinetics not given
T1 construct: native, semi-purified from mycelium (ammonium sulphate, HIC, SEC); octamer stated as typical; no tag

Structure (SMILES)	Km
OC[C@H](O)C(O)[C@@H](O)CO [L-arabinitol]	37 ± 3 mM
CO [Methanol]	13 ± 1 mM
COc1ccc(CO)cc1OC [Veratryl alcohol]	31 ± 4 mM
